Where two headings read alike, the source gives them in different places.

The values below come from patent US20260234159A1, “SMALL MOLECULE TREATMENT OF FATTY LIVER DISEASE AND HCC” (SCANDIEDGE THERAPEUTICS AB, priority 2023, published 2026).

A short description of series [1]: MTT cell viability after one week steatosis (ranking of target molecules). The class given is cell-based, human. The conditions noted are these: human, HepG2 cells (wild type); HepG2, 10 μM, one week steatosis induce media, MTT; Control 100.00. On the procedure:
(§1) HepG2 wild type cells were purchased from genome engineering company Synthego. Cells were maintained with Roswell Park Memorial Institute growth media, RPMI, 1640 (R2405, Sigma-Aldrich) and supplemented with 10% fetal bovine serum (FBS, F7524, Sigma-Aldrich), 1% penicillin-streptomycin (P/S, P4333, Sigma-Aldrich). Steatosis induction media was prepared as high glucose Dulbecco's Modified Eagle Media (DMEM, D0819, Sigma-Aldrich) with 10% FBS, 1% P/S media supplemented with 10 μg/ml insulin (I9278, Sigma-Aldrich), and 10 μM T0901317 (T2320, Sigma-Aldrich). HepG2 cells were seeded 6×10^4 cells per well for 96-well plate and 1×10^6 cells per well for 6-well plate. HepG2 cells were incubated with steatosis induce media (SM) for one week by 3 day+2 day+2 day with total three times media exchange.
(§2) HepG2 cells were seeded at 60,000 cells per well in 96 well plate. Using steatosis induce media, the cells were treated with 10 μM of target drugs for one week. The media was changed 3 times at day 0, day 3 and day 5. TAG assay was performed using MAK266-1KT SDS Triglyceride Quantification Colorimetric kit and cell viability analysis was performed using MTT assay.

In the next series the test system is HepG2 cells. Nature of the series: Triglyceride (TAG) measurement assay, one week steatosis model. The class given is cell-based, human. The conditions noted are these: for activity at 10 µM: Homo sapiens. On the procedure: as §1
HepG2 cells were seeded at 6×10^4 cells per well into 96 well plate and induced steatosis for one week with 10 μM of target drugs. After steatosis induction, cells were washed with 200 μl of phosphate buffered saline (PBS) and triglyceride contents was measured by Triglyceride Assay Kit—Quantification (ab65336, Abcam) following manufacturer's instruction. Optical density (O.D) values were detected with microplate reader at 570 nm (Hidex Sense Beta Plus).
as §2

Setting [2] is: 168 h, HepG2, 10 μM, one week steatosis induce media, Control 100.00, read-out: TAG (%).
The mark [3] stands for this setting: HepG2, 168 h, ratio between TAG content and cell viability, Control 100.0, read-out: TAG/cell viability.

For orientation: viability means a per cent measure of how many cells are alive, often set against a control. Read a low viability as more harm to the cells. Consider `N#Cc1c(NC(=O)c2cccc3ccccc23)sc2c1CCCCC2` [PKL-A56, N-(3-cyano-5,6,7,8-tetrahydro-4H-cyclohepta[b]thiophen-2-yl)-1-naphthamide], for which the viability at 1 week, 10 µM in series [1] came to 57%. In addition, the activity at 10 µM in the series on HepG2 cells (setting [2]) was found to be 35.6%; in the series on HepG2 cells (setting [3]) it was 62.5%.

Regarding `CC(=O)N1CCc2c(sc(NC(=O)c3cccc4ccccc34)c2C#N)C1` [PKL-A114], the viability at 1 week, 10 µM in series [1] came out at 49.4%. Further, the activity at 10 µM was 14.1% in the series on HepG2 cells (setting [2]) and 28.6% with HepG2 cells (setting [3]).

As to `CCOC(=O)CN1CCc2c(sc(NC(=O)c3cccc4ccccc34)c2C#N)C1` [PKL-A118], in series [1], the viability at 1 week, 10 µM was found to be 91%. Further, the activity at 10 µM worked out at 62.1% in the series on HepG2 cells (setting [2]) and 68.2% with HepG2 cells (setting [3]).

`COc1ccc(C(=O)Nc2sc3ccccc3c2C#N)c2ccccc12` [PKL-A149] came in with a viability at 1 week, 10 µM in series [1] of 50.9%. Also, the values for the activity at 10 µM in the series on HepG2 cells (setting [2]) and in the series on HepG2 cells (setting [3]) were 30.8% and 60.5%, respectively.

For the molecule `COc1cccc(NC(=O)N2CCc3c(sc(NC(=O)c4cccc5ccccc45)c3C#N)C2)c1` [PKL-A151], the viability at 1 week, 10 µM in series [1] was 61.6%. In addition, in the series on HepG2 cells, the “TAG content/cell viability ratio lower than JNK-IN-5A” value is “more than 3 times”; the “ratio between TAG content and cell viability” value is “low ratio between TAG content and cell viability”. Besides, in the series on HepG2 cells (setting [2]), the activity at 10 µM was found to be 11.5%. The activity at 10 µM in the series on HepG2 cells (setting [3]) is 18.7%.

For the molecule `Cc1ccccc1NC(=O)N1CCc2c(sc(NC(=O)c3cccc4ccccc34)c2C#N)C1` [PKL-A153], the viability at 1 week, 10 µM in series [1] was determined as 42.5%. Also, the activity at 10 µM in the series with HepG2 cells (setting [2]) worked out at 13.2%; in the series on HepG2 cells (setting [3]) it was 31.2%.

In the case of `N#Cc1c(NC(=O)c2cccc3ccccc23)sc2c1CCN(C(=O)Nc1ccccc1[N+](=O)[O-])C2` [PKL-A154], the viability at 1 week, 10 µM in series [1] amounted to 46%. Further, the activity at 10 µM with HepG2 cells (setting [2]) turned out to be 13.9%; with HepG2 cells (setting [3]), 30.3%.

On to `N#Cc1c(NC(=O)c2cccc3ccccc23)sc2c1CCN(C(=O)Nc1ccccc1Br)C2` [PKL-A157], for which, in series [1], the viability at 1 week, 10 µM turned out to be 36.5%. The activity at 10 µM in the series on HepG2 cells (setting [2]) was found to be 12.8%; in the series on HepG2 cells (setting [3]), 35.1%.

`Cc1ccc(F)c(NC(=O)N2CCc3c(sc(NC(=O)c4cccc5ccccc45)c3C#N)C2)c1` [PKL-A160]: in series [1], the viability at 1 week, 10 µM came to 56.4%. For the same molecule, the activity at 10 µM amounted to 14.9% with HepG2 cells (setting [2]) and 26.4% in the series on HepG2 cells (setting [3]).

As to `N#Cc1c(NC(=O)c2cccc3ccccc23)sc2c1CCN(C(=O)Nc1cccc3ccccc13)C2` [PKL-A161], the viability at 1 week, 10 µM in series [1] was 44.1%. Moreover, the activity at 10 µM was determined as 13.2% in the series on HepG2 cells (setting [2]) and 29.8% with HepG2 cells (setting [3]).

The molecule `CN(C(=O)N1CCc2c(sc(NC(=O)c3cccc4ccccc34)c2C#N)C1)c1ccccc1` [PKL-A162] yielded a viability at 1 week, 10 µM in series [1] of 49.2%. The “ratio between TAG content and cell viability” value with HepG2 cells is “low ratio between TAG content and cell viability”. In addition, the activity at 10 µM in the series on HepG2 cells (setting [2]) came to 12.3%; in the series on HepG2 cells (setting [3]), 25.1%. Besides, the TAG/cell viability with HepG2 cells (ratio as printed in text with %) stood at 25.1%.

In series [1], `CCN(C)C(=O)N1CCc2c(sc(NC(=O)c3cccc4ccccc34)c2C#N)C1` [PKL-A163] gave a viability at 1 week, 10 µM of 46.6%. Also, the activity at 10 µM in the series with HepG2 cells (setting [2]) was found to be 12.7%; with HepG2 cells (setting [3]), 27.2%.

In series [1], `N#Cc1c(NC(=O)c2cccc3ccccc23)sc2c1CCN(C(=O)N(c1ccccc1)c1ccccc1)C2` [PKL-A164] showed a viability at 1 week, 10 µM of 46%. The values for the activity at 10 µM in the series with HepG2 cells (setting [2]) and with HepG2 cells (setting [3]) were 17.3% and 37.6%, respectively.

The molecule `COc1ccc(S(=O)(=O)N2CCc3c(sc(NC(=O)c4cccc5ccccc45)c3C#N)C2)cc1OC` [PKL-A179] gave a viability at 1 week, 10 µM in series [1] of 66.5%. In addition, the activity at 10 µM with HepG2 cells (setting [2]) was found to be 34.7%; with HepG2 cells (setting [3]) it was 52.2%.

For the molecule `N#Cc1c(NC(=O)c2cccc3ccccc23)sc2c1CCN(S(=O)(=O)c1cccc3ccccc13)C2` [PKL-A183], the viability at 1 week, 10 µM in series [1] stood at 72.3%. Further, the values for the activity at 10 µM with HepG2 cells (setting [2]) and with HepG2 cells (setting [3]) were 48.6% and 67.2%, respectively.

Molecule `C=CC(=O)N1CCc2c(sc(NC(=O)c3cccc4ccccc34)c2C#N)C1` [PKL-A190] displayed a viability at 1 week, 10 µM in series [1] of 76.2%. The activity at 10 µM worked out at 24.2% with HepG2 cells (setting [2]) and 31.8% in the series with HepG2 cells (setting [3]).

In series [1], `N#Cc1c(NC(=O)c2cccc3ccccc23)sc2c1CCN(C(=O)c1cccc(F)c1)C2` [PKL-A192] had a viability at 1 week, 10 µM of 60.1%. The activity at 10 µM was determined as 22.9% in the series with HepG2 cells (setting [2]) and 38% with HepG2 cells (setting [3]).

As for `N#Cc1ccc(C(=O)N2CCc3c(sc(NC(=O)c4cccc5ccccc45)c3C#N)C2)cc1` [PKL-A193], in series [1], the viability at 1 week, 10 µM came out at 62.3%. Moreover, the activity at 10 µM in the series with HepG2 cells (setting [2]) was found to be 23.4%; with HepG2 cells (setting [3]), 37.6%.

On to `C=CCN1CCc2c(sc(NC(=O)c3cccc4ccccc34)c2C#N)C1` [PKL-B129], for which the viability at 1 week, 10 µM in series [1] is 71.2%. In addition, the results for the activity at 10 µM in the series with HepG2 cells (setting [2]) and with HepG2 cells (setting [3]) were 35.5% and 49.9%, respectively.

Take `N#Cc1c(NC(=O)c2cccc3ccccc23)sc2c1CCN(CC(=O)c1ccccc1)C2` [PKL-B130]: the viability at 1 week, 10 µM in series [1] stood at 64.1%. Also, the activity at 10 µM in the series on HepG2 cells (setting [2]) came out at 16.8%; in the series on HepG2 cells (setting [3]), 26.2%.

As to `CC(C)CCN1CCc2c(sc(NC(=O)c3cccc4ccccc34)c2C#N)C1` [PKL-B133], in series [1], the viability at 1 week, 10 µM came to 69.3%. Besides, the activity at 10 µM in the series on HepG2 cells (setting [2]) is 28.1%; with HepG2 cells (setting [3]), 40.6%.

For `N#Cc1c(NC(=O)c2cccc3ccccc23)sc2c1CCN(CCn1cnc3ccccc31)C2` [PKL-B153, N-(6-(2-(1H-benzo[d]imidazol-1-yl)ethyl)-3-cyano-4,5,6,7-tetrahydrothieno[2,3c]pyridin-2-yl)-1-naphthamide], the viability at 1 week, 10 µM in series [1] is 74%. The activity at 10 µM with HepG2 cells (setting [2]) came to 34.3%; in the series on HepG2 cells (setting [3]), 46.4%.

As for `N#Cc1c(NC(=O)c2cccc3ccccc23)sc2c1CCN(CC(=O)NC1CCOCC1)C2` [PKL-B164], the viability at 1 week, 10 µM in series [1] was determined as 74.1%. In addition, the results for the activity at 10 µM in the series with HepG2 cells (setting [2]) and with HepG2 cells (setting [3]) were 36.8% and 49.6%, respectively.

Regarding `C#Cc1cccc(NC(=O)CN2CCc3c(sc(NC(=O)c4cccc5ccccc45)c3C#N)C2)c1` [PKL-B170], the viability at 1 week, 10 µM in series [1] was 66%. The activity at 10 µM with HepG2 cells (setting [2]) stood at 55.6%; in the series with HepG2 cells (setting [3]) it was 84.2%.

Molecule `N#Cc1c(NC(=O)c2cccc3ccccc23)sc2c1CCN(CC(=O)Nc1ccccc1)C2` [PKL-B173] came in with a viability at 1 week, 10 µM in series [1] of 70.8%. Moreover, the figures for the activity at 10 µM with HepG2 cells (setting [2]) and in the series with HepG2 cells (setting [3]) were 34.7% and 49%, respectively.
